Legend:
Assay type in all cases: cell-based
[1] = target: Delta-type opioid receptor (Homo sapiens, UniProt P41143); experiment: Binding affinity against human opioid receptor delta 1 expressed in HEK293 cells using [3H]DDPDE radioligand
Nociceptin receptor [2] = target: T1, Nociceptin receptor (Homo sapiens, UniProt P41146); experiment: Binding affinity determined by the ability to compete with [125I]-Tyr14- nociceptin from binding to human opiate receptor-like 1 expressed in HEK293 cells
Nociceptin receptor [3] = target: T1, Nociceptin receptor; experiment: Ability to inhibit calcium flux in HEK293 cells overexpresses human opiate receptor-like 1 in the presence of 100 nM nociceptin
Mu-type opioid receptor = Mu-type opioid receptor (Homo sapiens, UniProt P35372); experiment: Binding affinity against human opioid receptor mu 1 expressed in HEK293 cells using [3H]DAMGO radioligand
[4] = target: Kappa-type opioid receptor (Homo sapiens, UniProt P41145); experiment: Binding affinity against human opioid receptor kappa 1 expressed in HEK293 cells using 3H-U69,593 radioligand
Kappa-type opioid receptor, sequence (P41145 whole entry): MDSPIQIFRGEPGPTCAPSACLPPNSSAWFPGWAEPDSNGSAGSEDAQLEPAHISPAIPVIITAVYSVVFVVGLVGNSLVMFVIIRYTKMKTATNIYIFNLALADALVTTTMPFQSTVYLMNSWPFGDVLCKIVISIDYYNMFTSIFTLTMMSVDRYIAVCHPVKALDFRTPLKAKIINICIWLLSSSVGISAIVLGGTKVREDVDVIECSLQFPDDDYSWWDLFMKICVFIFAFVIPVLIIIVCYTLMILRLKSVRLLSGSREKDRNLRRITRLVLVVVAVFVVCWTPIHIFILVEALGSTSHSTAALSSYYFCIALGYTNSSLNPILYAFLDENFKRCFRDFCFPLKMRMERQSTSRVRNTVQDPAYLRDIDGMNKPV

Delta-type opioid receptor, sequence (P41143 whole entry): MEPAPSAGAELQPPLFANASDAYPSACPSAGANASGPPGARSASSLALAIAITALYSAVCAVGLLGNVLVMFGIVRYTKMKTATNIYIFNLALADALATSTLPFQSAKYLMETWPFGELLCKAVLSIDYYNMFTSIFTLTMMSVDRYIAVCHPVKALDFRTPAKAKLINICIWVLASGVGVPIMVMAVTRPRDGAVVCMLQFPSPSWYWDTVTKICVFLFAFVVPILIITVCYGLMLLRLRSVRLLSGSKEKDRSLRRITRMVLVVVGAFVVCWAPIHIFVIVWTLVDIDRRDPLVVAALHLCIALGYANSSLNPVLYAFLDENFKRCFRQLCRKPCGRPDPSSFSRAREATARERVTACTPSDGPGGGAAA
T1 sequence (P41146 whole entry): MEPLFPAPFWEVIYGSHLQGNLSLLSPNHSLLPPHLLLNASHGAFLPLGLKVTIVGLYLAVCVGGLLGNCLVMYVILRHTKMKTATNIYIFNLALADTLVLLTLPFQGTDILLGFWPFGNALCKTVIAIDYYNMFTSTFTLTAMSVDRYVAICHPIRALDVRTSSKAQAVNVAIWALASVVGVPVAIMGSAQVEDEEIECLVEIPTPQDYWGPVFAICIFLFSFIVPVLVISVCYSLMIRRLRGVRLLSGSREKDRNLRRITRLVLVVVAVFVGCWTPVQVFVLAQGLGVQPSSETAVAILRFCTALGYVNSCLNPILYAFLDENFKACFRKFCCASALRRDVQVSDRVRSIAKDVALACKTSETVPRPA
Mu-type opioid receptor, sequence (P35372 whole entry): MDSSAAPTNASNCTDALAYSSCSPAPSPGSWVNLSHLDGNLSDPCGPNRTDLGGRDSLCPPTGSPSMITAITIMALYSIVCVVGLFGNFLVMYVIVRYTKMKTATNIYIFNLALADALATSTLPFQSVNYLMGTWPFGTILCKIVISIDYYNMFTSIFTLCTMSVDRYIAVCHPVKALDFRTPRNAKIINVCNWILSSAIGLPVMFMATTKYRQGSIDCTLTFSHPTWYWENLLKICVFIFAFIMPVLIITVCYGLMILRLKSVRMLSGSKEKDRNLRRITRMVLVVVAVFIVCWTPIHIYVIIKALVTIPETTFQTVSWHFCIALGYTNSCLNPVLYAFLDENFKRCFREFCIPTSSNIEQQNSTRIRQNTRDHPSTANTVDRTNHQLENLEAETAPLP

**Q.** With `O=C1N(CC(O)CNCCN2CCOCC2)c2ccccc2C12CCN(CC1CCCCCCC1)CC2` (centres undefined) as the compound, how does the IC50 [1] read?
**A.** > 10 µM

**Q.** `CC(=O)OCCN1C(=O)C2(CCN(CC3CCCCCCC3)CC2)c2ccccc21` was tested. Which IC50 [1] did it give?
**A.** > 10 µM

**Q.** `COC(=O)CN1C(=O)C2(CCN(Cc3ccccc3-c3ccsc3)CC2)c2ccccc21` was tested. Which IC50 (Nociceptin receptor [2]) did it give?
**A.** 10 µM

**Q.** How did the IC50 (Nociceptin receptor [2]) turn out when `CCCCCCC(CCCC)CN1CCC2(CC1)C(=O)N(CC(=O)OC)c1ccccc12` (centres undefined) was run?
**A.** 10 µM

**Q.** Which IC50 (Nociceptin receptor [2]) does the source give for `COC(=O)CN1C(=O)C2(CCN(C(C)c3ccccc3)CC2)c2ccccc21` (centres undefined) here?
**A.** 10 µM

**Q.** For `COC(=O)CN1C(=O)C2(CCN(Cc3ccc(-c4ccccc4)cc3)CC2)c2ccccc21`, which IC50 (Nociceptin receptor [2]) is on record?
**A.** 10 µM

**Q.** With `O=C1N(CC2CO2)c2ccccc2C12CCN(CC1CCCCCCC1)CC2` (centres undefined) as the compound, how does the IC50 [1] read?
**A.** > 10 µM

**Q.** With `COC(=O)CN1C(=O)C2(CCN(CC3CCCCCCC3)CC2)c2ccccc21` as the compound, how does the IC50 [1] read?
**A.** > 10 µM

**Q.** `O=C1N(Cc2ccccc2)c2ccccc2C12CCN(CC1CCCCCCC1)CC2` was tested. Which IC50 [1] did it give?
**A.** > 10 µM

**Q.** Which IC50 (Nociceptin receptor [2]) does the source give for `COC(=O)CN1C(=O)C2(CCN(C(=O)CCC(=O)c3ccccc3)CC2)c2ccccc21` here?
**A.** > 10 µM

**Q.** For `CN1C(=O)C2(CCN(CC3CCCCCCC3)CC2)c2cc(F)ccc21`, which inhibition (Nociceptin receptor [3]) is on record?
**A.** 66%

**Q.** For `CN1C(=O)C2(CCN(CC3CCCCCCC3)CC2)c2ccccc21`, which IC50 [1] is on record?
**A.** > 10 µM

**Q.** For `COc1ccc2c(c1)N(C)C(=O)C21CCN(CC2CCCCCCC2)CC1`, which IC50 [1] is on record?
**A.** > 10 µM

**Q.** For `CCN1C(=O)C2(CCN(CC3CCCCCCC3)CC2)c2ccc(OC)cc21`, which IC50 [1] is on record?
**A.** > 10 µM

**Q.** `CCN(Cc1ccc(C)cc1)CC(O)CN1C(=O)C2(CCN(CC3CCCCCCC3)CC2)c2ccccc21` (centres undefined) was tested. Which IC50 [1] did it give?
**A.** > 10 µM

**Q.** `Cc1ccc2c(c1)C1(CCN(CC3CCCCCCC3)CC1)C(=O)N2C` was tested. Which IC50 [1] did it give?
**A.** 9.4 µM

**Q.** What does the source list for `Cc1cccc2c1C1(CCN(CC3CCCCCCC3)CC1)C(=O)N2C`?
**A.** IC50 [1]: > 10 µM; inhibition (Nociceptin receptor [3]): 81%

**Q.** With `CC(C)c1ccc2c(c1)C1(CCN(CC3CCCCCCC3)CC1)C(=O)N2C` as the compound, how does the IC50 [1] read?
**A.** > 10 µM

**Q.** Which results are given for `COc1ccc2c(c1)N(CC1CC1)C(=O)C21CCN(CC2CCCCCCC2)CC1`?
**A.** IC50 (Mu-type opioid receptor): 10 µM; IC50 (Nociceptin receptor [2]): > 10 µM; IC50 [1]: > 10 µM; IC50 [4]: > 10 µM

**Q.** How did the inhibition (Nociceptin receptor [3]) turn out when `Cc1ccc2c(c1)N(C)C(=O)C21CCN(CC2CCCCCCC2)CC1` was run?
**A.** 48%

**Q.** `COC(=O)CN1C(=O)C2(CCN(C(=O)C3CCC(OC)CC3)CC2)c2ccccc21` (centres undefined) was tested. Which IC50 (Nociceptin receptor [2]) did it give?
**A.** > 10 µM

**Q.** `O=C(O)CN1C(=O)C2(CCN(CC3CCCCCCC3)CC2)c2ccccc21` was tested. Which IC50 (Nociceptin receptor [2]; hek293) did it give?
**A.** < 10 µM

**Q.** With `O=C1Nc2ccccc2C12CCN(CC1CCCCCCC1)CC2` as the compound, how does the IC50 [1] read?
**A.** > 10 µM

**Q.** And the inhibition (Nociceptin receptor [3])?
**A.** 45%

**Q.** `COC(=O)CN1C(=O)C2(CCN(c3ccc4c5c(cccc35)CC4)CC2)c2ccccc21` was tested. Which IC50 (Nociceptin receptor [2]) did it give?
**A.** 0.35 µM

— ChEMBL document CHEMBL1143642, “Preparation of 3-spirocyclic indolin-2-ones as ligands for the ORL-1 receptor” (Bioorg Med Chem Lett, 2005)
